Experimental data from EP4678638A1, “NEW E3 UBIQUITIN LIGASE LIGAND, PROTEIN DEGRADATION AGENT AND USE THEREOF” (priority 2023, dated 2024).

Assays:
[1] = target: T1, RSK2 (Homo sapiens, UniProt P51812); assay: Western blot degradation of RSK2 (hPBMC); type: cell-based; conditions: Table D8
T1 construct: evaluate the effects of the compounds of the present disclosure on the expression of target proteins in cells; endogenous in cells; host or cells: hPBMC
Experimental: (§1) Conventional Western blot assay was performed to evaluate the effects of the compounds of the present disclosure on the expression of target proteins in cells.
(§2) (1) Cell Seeding and Protein Harvesting: The selected cells were processed according to the cell seeding procedure and protein harvesting procedure in Table III-2. Table III-2 Cell Seeding and Protein Harvesting Procedures
(§3) (2) To the collected supernatant, 5X SDS sample loading buffer was added, followed by denaturation at 95°C for 5 minutes. The denatured samples were then separated by SDS-PAGE electrophoresis on a polyacrylamide gel. Proteins were transferred to a nitrocellulose membrane (0.45 µm NC membrane), blocked with blocking buffer at room temperature for 1 hour, and subjected to antibody incubation and development procedures according to the antibody manufacturer's instructions (Cell Signaling Technology).
(§4) Half-Maximal Degradation Concentration value (the drug concentration required for degrading proteins by 50%, abbreviated as DC50) reads method: comparing the grayscale values of Western blot bands from drug-treated samples with those from blank DMSO-treated controls, and identifying the drug concentration range at which the grayscale value is half that of the DMSO-treated control bands.
(§5) DC50 values can be calculated using ImageJ software to measure grayscale values of Western blot bands from drug-treated samples. The concentration-response curve is fitted to estimate the drug concentration corresponding to half the grayscale value.
(§6) Target protein remaining (%) refers to the percentage of target protein remaining in hPBMC cells after treatment with protein degrader compounds.
(§7) Calculation method for target protein remaining (%): Use ImageJ software to measure grayscale values of Western blot bands from drug (protein degrader)-treated samples. The grayscale value of drug-treated bands is divided by that of internal control protein bands, and the resulting quotient is normalized to obtain the relative percentage of remaining target protein after protein degrader treatment.
(§8) Target protein degradation rate (%) = 100% - target protein remaining (%).

[2] = target: T2, RSK1 (Homo sapiens, UniProt Q15418); assay: Western blot degradation of RSK1 (hPBMC); type: cell-based; conditions: Table D8
T2 construct: evaluate the effects of the compounds of the present disclosure on the expression of target proteins in cells; endogenous in cells; host or cells: hPBMC
T2 sequence (Q15418 whole entry): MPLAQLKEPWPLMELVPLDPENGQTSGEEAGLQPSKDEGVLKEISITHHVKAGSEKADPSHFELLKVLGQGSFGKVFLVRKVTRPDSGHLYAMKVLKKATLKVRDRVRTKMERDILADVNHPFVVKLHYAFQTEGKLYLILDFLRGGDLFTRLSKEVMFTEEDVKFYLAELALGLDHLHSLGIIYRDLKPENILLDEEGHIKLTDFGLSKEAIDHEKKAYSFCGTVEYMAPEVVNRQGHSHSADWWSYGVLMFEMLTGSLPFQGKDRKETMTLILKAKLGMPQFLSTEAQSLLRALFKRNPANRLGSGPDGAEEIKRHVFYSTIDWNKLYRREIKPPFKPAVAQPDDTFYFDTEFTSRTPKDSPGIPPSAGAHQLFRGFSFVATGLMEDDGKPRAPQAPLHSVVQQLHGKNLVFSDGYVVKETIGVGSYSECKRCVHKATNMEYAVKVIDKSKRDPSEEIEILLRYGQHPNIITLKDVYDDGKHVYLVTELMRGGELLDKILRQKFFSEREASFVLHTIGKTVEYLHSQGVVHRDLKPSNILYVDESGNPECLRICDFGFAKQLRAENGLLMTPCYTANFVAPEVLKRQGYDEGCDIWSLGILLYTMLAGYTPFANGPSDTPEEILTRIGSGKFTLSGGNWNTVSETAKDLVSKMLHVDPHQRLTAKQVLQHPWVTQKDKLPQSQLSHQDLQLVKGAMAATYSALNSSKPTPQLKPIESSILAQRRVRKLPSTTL
Experimental: as §1, §2, §3, §4, §5, §6, §7, §8

[3] = target: T3, CDK4 (Homo sapiens, UniProt P11802); assay: Western blot degradation of CDK4 (MDA-MB-231 Cell); type: cell-based; conditions: Table D3
T3 construct: evaluate the effects of the compounds of the present disclosure on the expression of target proteins in cells; endogenous in cells; host or cells: MDA-MB-231
T3 sequence (P11802 whole entry): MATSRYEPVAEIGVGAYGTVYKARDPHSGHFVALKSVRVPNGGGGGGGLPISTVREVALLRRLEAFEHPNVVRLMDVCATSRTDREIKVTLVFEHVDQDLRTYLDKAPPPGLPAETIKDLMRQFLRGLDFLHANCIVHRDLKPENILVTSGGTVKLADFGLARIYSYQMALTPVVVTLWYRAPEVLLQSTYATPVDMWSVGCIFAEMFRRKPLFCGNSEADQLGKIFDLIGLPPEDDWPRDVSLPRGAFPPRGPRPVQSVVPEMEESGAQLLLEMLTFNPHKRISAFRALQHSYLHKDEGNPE
Experimental: as §1, §2, §3, §4, §5, §6, §7, §8

[4] = target: T4, CDK6 (Homo sapiens, UniProt Q00534); assay: Western blot degradation of CDK6 (MDA-MB-231 Cell); type: cell-based; conditions: Table D3
T4 construct: evaluate the effects of the compounds of the present disclosure on the expression of target proteins in cells; endogenous in cells; host or cells: MDA-MB-231
T4 sequence (Q00534 whole entry): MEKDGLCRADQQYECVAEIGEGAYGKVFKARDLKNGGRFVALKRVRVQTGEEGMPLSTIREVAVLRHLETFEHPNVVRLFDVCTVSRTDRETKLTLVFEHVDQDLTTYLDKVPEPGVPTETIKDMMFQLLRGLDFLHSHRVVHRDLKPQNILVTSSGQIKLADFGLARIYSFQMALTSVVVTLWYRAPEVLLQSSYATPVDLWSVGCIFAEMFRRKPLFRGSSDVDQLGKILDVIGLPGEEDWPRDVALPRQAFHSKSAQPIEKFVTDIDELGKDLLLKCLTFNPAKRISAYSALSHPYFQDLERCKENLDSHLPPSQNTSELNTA
Experimental: as §1, §2, §3, §4, §5, §6, §7, §8

[5] = target: T5, human Cereblon WT GST-tagged protein (Homo sapiens, UniProt Q96SW2); assay: CRBN binding, HTRF (CEREBLON BINDING kit); conditions: Table II-2, CRBN binding screening, HTRF; for inhibition at 0.5 µM: read-out: Inhibition rate (%) at 0.5µM; for inhibition at 2 µM: read-out: Inhibition rate (%) at 2 µM
T5 construct: purchased CISBIO 64BDCRBNPEH
T5 sequence (Q96SW2 whole entry): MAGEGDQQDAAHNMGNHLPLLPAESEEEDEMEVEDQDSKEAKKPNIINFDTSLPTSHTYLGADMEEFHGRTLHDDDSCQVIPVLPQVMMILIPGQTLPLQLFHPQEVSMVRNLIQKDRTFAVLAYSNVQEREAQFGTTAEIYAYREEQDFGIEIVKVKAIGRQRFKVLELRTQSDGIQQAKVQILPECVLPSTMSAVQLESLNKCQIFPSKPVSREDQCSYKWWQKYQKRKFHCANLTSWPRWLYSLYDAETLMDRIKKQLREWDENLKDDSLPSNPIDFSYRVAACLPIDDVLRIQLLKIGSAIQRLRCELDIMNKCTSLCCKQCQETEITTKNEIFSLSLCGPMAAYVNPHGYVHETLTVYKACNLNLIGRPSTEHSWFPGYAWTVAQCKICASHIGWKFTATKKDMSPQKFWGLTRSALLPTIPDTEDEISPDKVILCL
Summary of the method: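 After 3 h at room temperature, emission at 665 and 620 nm was measured in a homogeneous time-resolved fluorescence format. Compounds competed with a Thalidomide-Re probe for GST-tagged wild-type human CRBN, which was labelled with a Eu anti-GST antibody.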

[6] = system: MCF7; assay: CCK-8 proliferation, MCF7 (MCF-7); type: cell-based; conditions: Homo sapiens, MCF7; CCK-8; read-out: Inhibitory activity (IC50) on tumor cell proliferation, MCF7
Summary of the method: (§9)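 Tumor cells were cultured at 37°C with 5% CO2, seeded, and after 24h treated with compounds at 10 concentrations starting at 10µM (5-fold serial dilutions).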

[7] = system: CCRF-CEM; assay: CCK-8 proliferation, CCRF-CEM; type: cell-based, Human; conditions: Homo sapiens, CCRF-CEM; CCK-8; 96 hours; read-out: Inhibitory activity (IC50) on tumor cell proliferation, CCRF-CEM
Summary of the method: as §9

T1 sequence (P51812 whole entry): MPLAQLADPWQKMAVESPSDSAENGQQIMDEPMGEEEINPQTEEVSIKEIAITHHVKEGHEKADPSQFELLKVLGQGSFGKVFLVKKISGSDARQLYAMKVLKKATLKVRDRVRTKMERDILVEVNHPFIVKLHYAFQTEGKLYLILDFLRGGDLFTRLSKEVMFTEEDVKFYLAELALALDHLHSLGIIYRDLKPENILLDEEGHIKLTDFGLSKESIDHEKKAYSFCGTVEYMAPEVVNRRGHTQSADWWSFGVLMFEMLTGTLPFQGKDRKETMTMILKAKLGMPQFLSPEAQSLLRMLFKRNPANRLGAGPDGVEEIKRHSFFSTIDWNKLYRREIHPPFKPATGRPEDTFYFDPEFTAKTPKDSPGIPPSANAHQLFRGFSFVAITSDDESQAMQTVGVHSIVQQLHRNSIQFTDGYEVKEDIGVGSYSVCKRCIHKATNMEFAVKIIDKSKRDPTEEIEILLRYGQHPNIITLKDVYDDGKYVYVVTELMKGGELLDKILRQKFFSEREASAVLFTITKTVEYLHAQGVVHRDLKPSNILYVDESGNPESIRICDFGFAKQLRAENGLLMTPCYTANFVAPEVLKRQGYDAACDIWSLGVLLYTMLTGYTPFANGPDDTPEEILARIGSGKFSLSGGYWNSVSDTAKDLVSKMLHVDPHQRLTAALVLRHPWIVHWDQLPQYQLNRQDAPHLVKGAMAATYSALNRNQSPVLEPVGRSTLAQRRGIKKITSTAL

Compound | Degradation of substrate protein RSK2 (substrate protein remaining %) [1] | Degradation of substrate protein RSK1 (substrate protein remaining %) [2] | Degradation of substrate protein CDK4 (substrate protein remaining %) [3] | Degradation of substrate protein CDK6 (substrate protein remaining %) [4] | inhibition at 0.5 µM [5] | inhibition at 2 µM [5] | IC50 [6] | IC50 [7]
C[C@@H]1CNC(=O)c2cc3ccc(C(=O)Nc4cnn(Cc5ccc(N6CCN(Cc7cccc(N8CCC(=O)NC8=O)c7)CC6)cc5)c4)nc3n21 [GT-07928, (R)-N-(1-(4-(4-(3-(2,4-dioxotetrahydropyrimidin-1(2H)-yl)benzyl)piperazin-1-yl)benzyl)-1H-pyrazol-4-yl)-9-methyl-6-oxo-6,7,8,9-tetrahydropyrido[3',2':4,5]py rrolo[1,2-a]pyrazine-2-carboxamide] | A (A is defined as 0% ≤ substrate protein remaining % ≤ 80%) | A (A is defined as 0% ≤ substrate protein remaining % ≤ 80%) |  |  |  |  |  | 
C[C@@H]1CNC(=O)c2cc3ccc(C(=O)Nc4cnn(Cc5ccc(N6CCC(N7CCN(Cc8cncc(N9CCC(=O)NC9=O)c8)CC7)CC6)cc5)c4)nc3n21 [GT-07959, (R)-N-(1-(4-(4-(4-((5-(2,4-dioxotetrahydropyrimidin-1(2H)-yl)pyridin-3-yl)methyl)piperazin-1-yl)piperidin-1-yl)benzyl)-1H-pyrazol-4-yl)-9-methyl-6-oxo-6,7,8,9-tetrahydropyrido[3',2':4,5]pyrrolo[1,2-a]pyrazine-2-carboxamide] | A (A is defined as 0% ≤ substrate protein remaining % ≤ 80%) | A (A is defined as 0% ≤ substrate protein remaining % ≤ 80%) |  |  |  |  |  | 
C[C@@H]1CNC(=O)c2cc3ccc(C(=O)Nc4cnn(Cc5ccc(N6CCN(Cc7cnc(N8CCC(=O)NC8=O)cn7)CC6)cc5)c4)nc3n21 [GT-07936, (R)-N-(1-(4-(4-((5-(2,4-dioxotetrahydropyrimidin-1(2H)-yl)pyrazin-2-yl)methyl)piperazin-1-yl)benzyl)-1H-pyrazol-4-yl)-9-methyl-6-oxo-6,7,8,9-tetrahydropyrido[3',2':4,5]py rrolo[1,2-a]pyrazine-2-carboxamide] | B (B is defined as substrate protein remaining % > 80%) | A (A is defined as 0% ≤ substrate protein remaining % ≤ 80%) |  |  |  |  |  | 
CN(C)C(=O)c1cc2cnc(Nc3ccc(N4CCN(Cc5cc(N6CCC(=O)NC6=O)cnc5F)CC4)cn3)nc2n1C1CCCC1 [GT-07830, 7-cyclopentyl-2-((5-(4-((5-(2,4-dioxotetrahydropyrimidin-1(2H)-yl)-2-fluoropyridin-3-yl)methyl)piperazin-1-yl)pyridin-2-yl)amino)-N,N-dimethyl-7H-pyrrolo[2,3-d]pyrimidine-6-carboxamide] |  |  | A (A is defined as 0% ≤ substrate protein remaining % ≤ 80%) | A (A is defined as 0% ≤ substrate protein remaining % ≤ 80%) | 30 to 40% | 60 to 80% |  | 
CN(C)C(=O)c1cc2cnc(Nc3ccc(N4CCN(Cc5cncc(N6CCC(=O)NC6=O)c5)CC4)cn3)nc2n1C1CCCC1 [GT-07476, 7-cyclopentyl-2-((5-(4-((5-(2,4-dioxotetrahydropyrimidin-1(2H)-yl)pyridin-3-yl)methyl)piperazin-1-yl)pyridin-2-yl)amino)-N,N-dimethyl-7H-pyrrolo[2,3-d]pyrimidine-6-carboxamide] |  |  | A (A is defined as 0% ≤ substrate protein remaining % ≤ 80%) | A (A is defined as 0% ≤ substrate protein remaining % ≤ 80%) | 30 to 40% | 60 to 80% |  | 
CN(C)C(=O)c1cc2cnc(Nc3ccc(N4CCN(Cc5ccc(C6CCC(=O)NC6=O)cn5)CC4)cn3)nc2n1C1CCCC1 (stereo not shown) [GT-07477, 7-cyclopentyl-2-((5-(4-((5-(2,6-dioxopiperidin-3-yl)pyridin-2-yl)methyl)piperazin-1-yl)pyridin-2-yl)amino)-N,N-dimethyl-7H-pyrrolo[2,3-d]pyrimidine-6-carboxamide] |  |  | A (A is defined as 0% ≤ substrate protein remaining % ≤ 80%) | A (A is defined as 0% ≤ substrate protein remaining % ≤ 80%) | 20 to 30% | 60 to 80% |  | 
CC(=O)c1c(C)c2cnc(Nc3ccc(N4CCN(Cc5ccc(N6CCC(=O)NC6=O)cn5)CC4)cn3)nc2n(C2CCCC2)c1=O [GT-06578, 1-(6-((4-(6-((6-acetyl-8-cyclopentyl-5-methyl-7-oxo-7,8-dihydropyrido[2,3-d]pyrimidin-2-yl)amino)pyridin-3-yl)piperazin-1-yl)methyl)pyridin-3-yl)dihydropyrimidine-2,4(1H,3H)-dione] |  |  | B (B is defined as substrate protein remaining % > 80%) | A (A is defined as 0% ≤ substrate protein remaining % ≤ 80%) |  |  | 500 to 1000 nM | 
CC(=O)c1c(C)c2cnc(Nc3ccc(N4CCN(Cc5ccc(C6CCC(=O)NC6=O)cc5)CC4)cn3)nc2n(C2CCCC2)c1=O (stereo not shown) [GT-06575, 3-(4-((4-(6-((6-acetyl-8-cyclopentyl-5-methyl-7-oxo-7,8-dihydropyrido[2,3-d]pyrimidin-2-yl)amino)pyridin-3-yl)piperazin-1-yl)methyl)phenyl)piperidine-2,6-dione] |  |  | A (A is defined as 0% ≤ substrate protein remaining % ≤ 80%) | A (A is defined as 0% ≤ substrate protein remaining % ≤ 80%) |  |  | 100 to 500 nM | 
CC(=O)c1c(C)c2cnc(Nc3ccc(N4CCN(Cc5cccc(NC6CCC(=O)NC6=O)c5)CC4)cn3)nc2n(C2CCCC2)c1=O (stereo not shown) [GT-06580, 3-((3-((4-(6-((6-acetyl-8-cyclopentyl-5-methyl-7-oxo-7,8-dihydropyrido[2,3-d]pyrimidin-2-yl)amino)pyridin-3-yl)piperazin-1-yl)methyl)phenyl)amino)pip eridine-2,6-dione] |  |  | B (B is defined as substrate protein remaining % > 80%) | A (A is defined as 0% ≤ substrate protein remaining % ≤ 80%) |  |  | 500 to 1000 nM | 
CN(C)C(=O)c1cc2cnc(Nc3ccc(N4CCN(Cc5cncc(C6CCC(=O)NC6=O)c5)CC4)cn3)nc2n1C1CCCC1 (stereo not shown) [GT-07479, 7-cyclopentyl-2-((5-(4-((5-(2,6-dioxopiperidin-3-yl)pyridin-3-yl)methyl)piperazin-1-yl)pyridin-2-yl)amino)-N,N-dimethyl-7H-pyrrolo[2,3-d]pyrimidine-6-carboxamide] |  |  | A (A is defined as 0% ≤ substrate protein remaining % ≤ 80%) | A (A is defined as 0% ≤ substrate protein remaining % ≤ 80%) | 53 to 60% | 80 to 100% |  | 
CN(C)C(=O)c1cc2cnc(Nc3ccc(N4CCN(Cc5ccnc(N6CCC(=O)NC6=O)c5)CC4)cn3)nc2n1C1CCCC1 [GT-07475, 7-cyclopentyl-2-((5-(4-((2-(2,4-dioxotetrahydropyrimidin-1(2H)-yl)pyridin-4-yl)methyl)piperazin-1-yl)pyridin-2-yl)amino)-N,N-dimethyl-7H-pyrrolo[2,3-d]pyrimidine-6-carboxamide] |  |  | A (A is defined as 0% ≤ substrate protein remaining % ≤ 80%) | A (A is defined as 0% ≤ substrate protein remaining % ≤ 80%) |  |  |  | 500 to 1000 nM
